Data reported in ChEMBL document CHEMBL2439971, “Design, synthesis and antiproliferative evaluation of fluorenone analogs with DNA topoisomerase I inhibitory properties” (Bioorg Med Chem, 2013).
The source made the active and inactive calls. The rule behind the calls is not given here.

Tests used:
[1] = test system: MDA-MB-435; test: Cytotoxicity against human MDA-MB-435 cells at 10 uM after 48 hrs by sulforhodamine B assay relative to control; format: functional
[2] = test system: SNB-75; test: Cytotoxicity against human SNB75 cells at 10 uM after 48 hrs by sulforhodamine B assay relative to control; format: functional
[3] = species: Homo sapiens; test: Inhibition of telomerase (unknown origin) at 10 uM TRAP assay
[4] = test system: SF-539; test: Cytotoxicity against human SF539 cells at 10 uM after 48 hrs by sulforhodamine B assay relative to control; format: functional
[5] = test system: MCF7; test: Cytotoxicity against human MCF7 cells at 10 uM after 48 hrs by sulforhodamine B assay relative to control; format: functional
[6] = test system: UACC-62; test: Cytotoxicity against human UACC62 cells at 10 uM after 48 hrs by sulforhodamine B assay relative to control; format: functional
[7] = test system: KM12; test: Cytotoxicity against human KM12 cells at 10 uM after 48 hrs by sulforhodamine B assay relative to control; format: functional
[8] = test system: IGROV-1; test: Cytotoxicity against human IGROV1 cells at 10 uM after 48 hrs by sulforhodamine B assay relative to control; format: functional
[9] = test system: Malme-3M; test: Cytotoxicity against human MALME-3M cells at 10 uM after 48 hrs by sulforhodamine B assay relative to control; format: functional
[10] = test system: OVCAR-3; test: Cytotoxicity against human OVCAR3 cells at 10 uM after 48 hrs by sulforhodamine B assay relative to control; format: functional
[11] = test system: NCI/ADR-RES; test: Cytotoxicity against human NCI/ADR-RES cells at 10 uM after 48 hrs by sulforhodamine B assay relative to control; format: functional
[12] = test system: PC-3; test: Cytotoxicity against human PC3 cells after 48 hrs by sulforhodamine B assay; format: functional, cell-based; conditions: PC-3, 48 h
[13] = test system: NCI-H23; test: Cytotoxicity against human NCI-H23 cells at 10 uM after 48 hrs by sulforhodamine B assay relative to control; format: functional
[14] = test system: LOX IMVI; test: Cytotoxicity against human LOXIMVI cells at 10 uM after 48 hrs by sulforhodamine B assay relative to control; format: functional
[15] = test system: HCC 2998; test: Cytotoxicity against human HCC2998 cells at 10 uM after 48 hrs by sulforhodamine B assay relative to control; format: functional
[16] = test system: SNB-19; test: Cytotoxicity against human SNB19 cells at 10 uM after 48 hrs by sulforhodamine B assay relative to control; format: functional
[17] = test system: SR; test: Cytotoxicity against human SR cells at 10 uM after 48 hrs by sulforhodamine B assay relative to control; format: functional
[18] = test system: NCI-H322M; test: Cytotoxicity against human NCI-H322M cells at 10 uM after 48 hrs by sulforhodamine B assay relative to control; format: functional
[19] = test system: SW-620; test: Cytotoxicity against human SW620 cells at 10 uM after 48 hrs by sulforhodamine B assay relative to control; format: functional
[20] = test system: BT-549; test: Cytotoxicity against human BT549 cells at 10 uM after 48 hrs by sulforhodamine B assay relative to control; format: functional
[21] = test system: UO-31; test: Cytotoxicity against human UO31 cells at 10 uM after 48 hrs by sulforhodamine B assay relative to control; format: functional
[22] = test system: SK-MEL-5; test: Cytotoxicity against human SK-MEL-5 cells at 10 uM after 48 hrs by sulforhodamine B assay relative to control; format: functional
[23] = test system: SK-MEL-2; test: Cytotoxicity against human SK-MEL-2 cells at 10 uM after 48 hrs by sulforhodamine B assay relative to control; format: functional
[24] = test system: SN12C; test: Cytotoxicity against human SN12C cells at 10 uM after 48 hrs by sulforhodamine B assay relative to control; format: functional
[25] = test system: PC-3; test: Cytotoxicity against human PC3 cells at 10 uM after 48 hrs by sulforhodamine B assay relative to control; format: functional
[26] = test system: RXF 393; test: Cytotoxicity against human RXF393 cells at 10 uM after 48 hrs by sulforhodamine B assay relative to control; format: functional
[27] = test system: T47D; test: Cytotoxicity against human T47D cells at 10 uM after 48 hrs by sulforhodamine B assay relative to control; format: functional
[28] = test system: NCI-H460; test: Cytotoxicity against human NCI-H460 cells at 10 uM after 48 hrs by sulforhodamine B assay relative to control; format: functional
[29] = test system: 786-0; test: Cytotoxicity against human 786-0 cells at 10 uM after 48 hrs by sulforhodamine B assay relative to control; format: functional
[30] = test system: HOP-92; test: Cytotoxicity against human HOP92 cells at 10 uM after 48 hrs by sulforhodamine B assay relative to control; format: functional
[31] = test system: HL-60(TB); test: Cytotoxicity against human HL-60(TB) cells at 10 uM after 48 hrs by sulforhodamine B assay relative to control; format: functional
[32] = test system: A549; test: Cytotoxicity against human A549 cells at 10 uM after 48 hrs by sulforhodamine B assay relative to control; format: functional
[33] = test system: NCI-H522; test: Cytotoxicity against human NCI-H522 cells at 10 uM after 48 hrs by sulforhodamine B assay relative to control; format: functional
[34] = test system: UACC-257; test: Cytotoxicity against human UACC257 cells at 10 uM after 48 hrs by sulforhodamine B assay relative to control; format: functional
[35] = Cytotoxicity against human EKVX cells at 10 uM after 48 hrs by sulforhodamine B assay relative to control; format: functional
[36] = test system: HCT-15; test: Cytotoxicity against human HCT15 cells at 10 uM after 48 hrs by sulforhodamine B assay relative to control; format: functional
[37] = test system: SF-295; test: Cytotoxicity against human SF295 cells at 10 uM after 48 hrs by sulforhodamine B assay relative to control; format: functional
[38] = test system: OVCAR-4; test: Cytotoxicity against human OVCAR4 cells at 10 uM after 48 hrs by sulforhodamine B assay relative to control; format: functional
[39] = test system: NCI-H226; test: Cytotoxicity against human NCI-H226 cells at 10 uM after 48 hrs by sulforhodamine B assay relative to control; format: functional
[40] = test system: SK-MEL-28; test: Cytotoxicity against human SK-MEL-28 cells at 10 uM after 48 hrs by sulforhodamine B assay relative to control; format: functional
[41] = test system: HOP-62; test: Cytotoxicity against human HOP62 cells at 10 uM after 48 hrs by sulforhodamine B assay relative to control; format: functional
[42] = test system: SF-268; test: Cytotoxicity against human SF268 cells at 10 uM after 48 hrs by sulforhodamine B assay relative to control; format: functional
[43] = test system: ACHN; test: Cytotoxicity against human ACHN cells at 10 uM after 48 hrs by sulforhodamine B assay relative to control; format: functional
[44] = test system: DU-145; test: Cytotoxicity against human DU145 cells at 10 uM after 48 hrs by sulforhodamine B assay relative to control; format: functional
[45] = test system: HCT-116; test: Cytotoxicity against human HCT116 cells at 10 uM after 48 hrs by sulforhodamine B assay relative to control; format: functional
[46] = test system: OVCAR-8; test: Cytotoxicity against human OVCAR8 cells at 10 uM after 48 hrs by sulforhodamine B assay relative to control; format: functional
[47] = test system: OVCAR-5; test: Cytotoxicity against human OVCAR5 cells at 10 uM after 48 hrs by sulforhodamine B assay relative to control; format: functional
[48] = test system: TK-10; test: Cytotoxicity against human TK10 cells at 10 uM after 48 hrs by sulforhodamine B assay relative to control; format: functional
[49] = test system: CCRF-CEM; test: Cytotoxicity against human CCRF-CEM cells at 10 uM after 48 hrs by sulforhodamine B assay relative to control; format: functional
[50] = test system: K562; test: Cytotoxicity against human K562 cells at 10 uM after 48 hrs by sulforhodamine B assay relative to control; format: functional
[51] = Cytotoxicity against human Hs 578T cells at 10 uM after 48 hrs by sulforhodamine B assay relative to control; format: functional
[52] = test system: U-251; test: Cytotoxicity against human U251 cells at 10 uM after 48 hrs by sulforhodamine B assay relative to control; format: functional
[53] = test system: CAKI-1; test: Cytotoxicity against human CAKI-1 cells at 10 uM after 48 hrs by sulforhodamine B assay relative to control; format: functional
[54] = test system: RPMI-8226; test: Cytotoxicity against human RPMI8226 cells at 10 uM after 48 hrs by sulforhodamine B assay relative to control; format: functional
[55] = test system: MOLT-4; test: Cytotoxicity against human MOLT4 cells at 10 uM after 48 hrs by sulforhodamine B assay relative to control; format: functional
[56] = test system: M14; test: Cytotoxicity against human M14 cells at 10 uM after 48 hrs by sulforhodamine B assay relative to control; format: functional
[57] = test system: MDA-MB-468; test: Cytotoxicity against human MDA-MB-468 cells at 10 uM after 48 hrs by sulforhodamine B assay relative to control; format: functional
[58] = test system: HT-29; test: Cytotoxicity against human HT-29 cells at 10 uM after 48 hrs by sulforhodamine B assay relative to control; format: functional
[59] = test system: COLO 205; test: Cytotoxicity against human COLO205 cells at 10 uM after 48 hrs by sulforhodamine B assay relative to control; format: functional
[60] = test system: MDA-MB-231; test: Cytotoxicity against human MDA-MB-231 cells at 10 uM after 48 hrs by sulforhodamine B assay relative to control; format: functional

## CN1CCN(CC(=O)Nc2ccc3c(c2)C(=O)c2cc(NC(=O)CN4CCN(C)CC4)ccc2-3)CC1
[1]
  Activity: 95.92%
[2]
  Activity: 87.76%
[3]
  inhibition: inactive
[4]
  Activity: 107.96%
[5]
  Activity: 95.17%
[6]
  Activity: 110.11%
[7]
  Activity: 108.52%
[8]
  Activity: 110.15%
[9]
  Activity: 115.66%
[10]
  Activity: 125.59%
[11]
  Activity: 102.76%
[12]
  IC50: > 30 µM
[13]
  Activity: 99.17%
[14]
  Activity: 96.76%
[15]
  Activity: 98.62%
[16]
  Activity: 101.36%
[17]
  Activity: 105.62%
[18]
  Activity: 97.25%
[19]
  Activity: 103.43%
[20]
  Activity: 110.6%
[21]
  Activity: 89.84%
[22]
  Activity: 103.25%
[23]
  Activity: 119.93%
[24]
  Activity: 100.48%
[25]
  Activity: 101.32%
[26]
  Activity: 110.09%
[27]
  Activity: 103.63%
[28]
  Activity: 108.46%
[29]
  Activity: 102.26%
[30]
  Activity: 93.88%
[31]
  Activity: 100.43%
[32]
  Activity: 106.99%
[33]
  Activity: 90.02%
[34]
  Activity: 133.36%
[35]
  Activity: 100.31%
[36]
  Activity: 106.48%
[37]
  Activity: 93.37%
[38]
  Activity: 111.66%
[39]
  Activity: 106.03%
[40]
  Activity: 97.75%
[41]
  Activity: 111.05%
[42]
  Activity: 115.79%
[43]
  Activity: 111.9%
[44]
  Activity: 117.23%
[45]
  Activity: 94.2%
[46]
  Activity: 111.5%
[47]
  Activity: 119.06%
[48]
  Activity: 106.54%
[49]
  Activity: 98.38%
[50]
  Activity: 104.58%
[51]
  Activity: 107.34%
[52]
  Activity: 97.19%
[53]
  Activity: 92.75%
[54]
  Activity: 106.31%
[55]
  Activity: 96.58%
[56]
  Activity: 106.48%
[57]
  Activity: 98.39%
[58]
  Activity: 95.51%
[59]
  Activity: 102.69%
[60]
  Activity: 108.13%
